{"source": "patent US20160115540A1", "about": "“PRODRUGS AND DRUGS” (Biogen MA Inc., priority 2013, published 2016)", "tested_on": "kidney", "test": "Transcriptional profiling on Affymetrix GeneChips, single dose, naïve mice: kidney", "type": "in vivo, C57BL/6 mice", "conditions": "100 DMF-vs-Veh, 2 h", "experimental": "Treated mice were sacrificed at 2, 7, or 12 hours. Tissues (liver, spleen, kidney, jejunum, cortex, hippocampus, striatum and whole blood) were collected and analyzed by transcriptional profiling on mouse Affymetrix GeneChips.\nTissues (liver, spleen, kidney, jejunum, cortex, hippocampus, striatum and whole blood) were collected and analyzed by transcriptional profiling on mouse Affymetrix GeneChips.\nAnimals were exposed to CO2 and whole blood collected via cardiac puncture. Two 100 μl aliquots of whole blood were collected in 1.5 mL microcentrifuge tubes and snap frozen in liquid nitrogen. Peripheral (liver, spleen, kidney and jejunum) and CNS brain (cerebellum, hippocampus, striatum and cortex) tissues were harvested and snap frozen in liquid nitrogen, with special care taken to collect tissues of similar size and from the same location. All samples were stored at −80° C. until RNA extraction was conducted.\nFor RNA preparation, frozen tissues were placed in 2 mL RNAse-free 96-well blocks with 1.5 mL QIAzol Lysis Reagent (QIAgen) and a 3.2 mm stainless steel bead (BioSpec Products, Bartlesville, Okla.). Tissues were disrupted for four cycles of 45 seconds in a Mini-Beadbeater (Biospec Products). RNA was extracted in chloroform and the aqueous phase was mixed with an equal volume of 70% ethanol. Extracted RNA was applied to RNeasy 96 plates and purified by the spin method according to the manufacturer's protocol (RNeasy 96 Universal Tissue Protocol, QIAgen, Hilden Germany).\nAutomated sample amplifications and biotin labelings were carried out using the NuGEN Ovation RNA Amplification system V2 (Cat #3100), Ovation WB reagent (Cat #1300) and Encore Biotin module (Cat #4200) (NuGEN Technologies, Inc, San Carlos, Calif.) according to manufacturer's recommendations using an Arrayplex automated liquid handler (Beckman Coulter, Indianapolis, Ind.). Two micrograms of biotin labeled sscDNA probe were hybridized to Affymetrix GeneChip Affymetrix HT_MG-430_PM plate arrays with modified conditions as described in Allaire et al. Washing and staining of the hybridized arrays were completed as described in the GeneChip Expression analysis technical manual for HT plate arrays using the Genechip® Array Station (Affymetrix, Santa Clara, Calif.) with modifications as described in Allaire et al. The processed GeneChip® plate arrays were scanned using GeneTitan scanner (Affymetrix, Santa Clara, Calif.).\nAffymetrix scans were subject to quality control (QC) measures. These tests included a visual inspection of the distribution of raw signal intensities and an assessment of RNA degradation, relative log expression (RLE), and normalized unsealed standard error (NUSE). All sample scans that passed these QC metrics were included in the analysis.\nAll CEL files were subjected to GC-content-based Robust Multi-array Average (GCRMA) normalization (version 2.20.0) (Irizarry R A, et al. Nucleic Acids Res 2003; 31:e15; Li C, et al. Genome Biol 2001; 2:[…]0032). Expression levels were log (base 2) transformed.\nAll calculations and analyses were carried out using R (version 2.11.1) and Bioconductor computational tools (Gentleman R. Springer Science+Business Media 2005).", "note": "Where a name gives a salt, the structure may show the parent alone."}
{"smiles": "COC(=O)/C=C/C(=O)OC", "note": "[DMF, dimethyl fumarate]", "values": [{"measurement": "FC Kbtbd11 1431254_PM_at", "result": "−1.77"}, {"measurement": "FC Kbtbd11 1435465_PM_at", "result": "−1.50"}, {"measurement": "FC Kdm6b 1440346_PM_at", "result": 1.52}, {"measurement": "FC LOC100502834 1441010_PM_at", "result": "−1.53"}, {"measurement": "FC LOC100503447 1443908_PM_at", "result": "−1.72"}, {"measurement": "FC Lipg 1421262_PM_at", "result": 2.42}, {"measurement": "FC Lipg 1450188_PM_s_at", "result": 1.94}, {"measurement": "FC Lonrf3 1429863_PM_at", "result": 4.13}, {"measurement": "FC Lonrf3 1436200_PM_at", "result": 3.86}, {"measurement": "FC Maff 1418936_PM_at", "result": 2.83}, {"measurement": "FC Mdm2 1423605_PM_a_at", "result": 1.51}, {"measurement": "FC Mdm2 1427718_PM_a_at", "result": 1.66}, {"measurement": "FC Med13 1438725_PM_at", "result": 2.02}, {"measurement": "FC Mfsd2a 1428223_PM_at", "result": "−2.59"}, {"measurement": "FC Mir17hg 1428694_PM_at", "result": 2.82}, {"measurement": "FC Mpp6 1441546_PM_at", "result": 1.62}, {"measurement": "FC Mt1 1451612_PM_at", "result": 2.79}, {"measurement": "FC Mtch2 1438842_PM_at", "result": 1.67}, {"measurement": "FC Mthfd2 1419253_PM_at", "result": 2.06}, {"measurement": "FC Mthfd2 1419254_PM_at", "result": 1.54}, {"measurement": "FC Mylip 1424988_PM_at", "result": "−1.70"}, {"measurement": "FC Naa16 1429056_PM_at", "result": 1.71}, {"measurement": "FC Napsa 1430744_PM_at", "result": "−4.53"}, {"measurement": "FC Nat2 1449981_PM_a_at", "result": "−2.01"}, {"measurement": "FC Nlrp6 1427369_PM_at", "result": "−1.52"}, {"measurement": "FC Ntn4 1450512_PM_at", "result": "−1.67"}, {"measurement": "FC Nufip2 1435632_PM_at", "result": 1.57}, {"measurement": "FC Osgin1 (1424022_PM_at)", "result": 4.63}, {"measurement": "FC Ovol1 1419051_PM_at", "result": "−1.60"}, {"measurement": "FC P4ha1 1452094_PM_at", "result": 1.56}, {"measurement": "FC Paip1 1441955_PM_s_at", "result": 1.61}, {"measurement": "FC Pank1 1429813_PM_at", "result": "−1.59"}, {"measurement": "FC Pgd 1423706_PM_a_at", "result": 1.61}, {"measurement": "FC Pgd 1438627_PM_x_at", "result": 1.50}, {"measurement": "FC Pgd (1436771_PM_x_at)", "result": 1.52}, {"measurement": "FC Pgd (1437380_PM_x_at)", "result": 1.53}, {"measurement": "FC Phf23 1428997_PM_at", "result": 1.72}, {"measurement": "FC Phip 1438535_PM_at", "result": 1.50}, {"measurement": "FC Plekhf2 1423862_PM_at", "result": 1.54}, {"measurement": "FC Plk3 1434496_PM_at", "result": 3.14}, {"measurement": "FC Polr3e 1429456_PM_a_at", "result": "−1.69"}, {"measurement": "FC Ppm1k 1441988_PM_at", "result": "−1.62"}, {"measurement": "FC Ppp1r15b 1436366_PM_at", "result": 1.72}, {"measurement": "FC Pppde1 1425185_PM_at", "result": 1.94}, {"measurement": "FC Pppde1 1451621_PM_at", "result": 1.65}, {"measurement": "FC Pprc1 1426381_PM_at", "result": 1.74}, {"measurement": "FC Prkar2b 1438664_PM_at", "result": 2.43}, {"measurement": "FC Prr5 1451463_PM_at", "result": 1.65}, {"measurement": "FC Psme4 1443116_PM_at", "result": 1.56}, {"measurement": "FC Rg9mtd2 1435035_PM_at", "result": 1.82}, {"measurement": "FC Rhebl1 1447818_PM_x_at", "result": "−1.57"}, {"measurement": "FC Rhebl1 1451516_PM_at", "result": "−2.01"}, {"measurement": "FC Riok2 1423481_PM_at", "result": 1.62}, {"measurement": "FC Rwdd2a 1428963_PM_at", "result": 2.54}, {"measurement": "FC Siah2 1448170_PM_at", "result": 1.71}, {"measurement": "FC Slc1a4 1423549_PM_at", "result": 1.52}, {"measurement": "FC Slc7a13 1431740_PM_at", "result": "−2.60"}, {"measurement": "FC Slc20a1 1448568_PM_a_at", "result": 2.07}, {"measurement": "FC Slc36a2 1436521_PM_at", "result": 4.63}, {"measurement": "FC Slc38a2 1426722_PM_at", "result": 2.05}, {"measurement": "FC Slc40a1 1448566_PM_at", "result": 1.71}, {"measurement": "FC Snhg1 1433674_PM_a_at", "result": 1.62}, {"measurement": "FC Snhg1 1433675_PM_at", "result": 1.69}, {"measurement": "FC Snx16 1438803_PM_s_at", "result": 1.60}, {"measurement": "FC Spry4 1440867_PM_at", "result": 1.71}, {"measurement": "FC Spry4 1445669_PM_at", "result": 1.54}, {"measurement": "FC Sqstm1 1450957_PM_a_at", "result": 1.69}, {"measurement": "FC Srsf7 1436871_PM_at", "result": 1.57}, {"measurement": "FC Srxn1 (1419942_PM_at)", "result": 1.62}, {"measurement": "FC Srxn1 (1426875_PM_s_at)", "result": 1.59}, {"measurement": "FC Susd3 1428975_PM_at", "result": "−1.51"}, {"measurement": "FC Syn3 1435311_PM_s_at", "result": "−1.73"}, {"measurement": "FC Taf15 1438130_PM_at", "result": 1.59}, {"measurement": "FC Them4 1431140_PM_at", "result": 1.80}, {"measurement": "FC Tmco6 1451692_PM_at", "result": "−1.57"}, {"measurement": "FC Tmem26 1435409_PM_at", "result": "−1.85"}, {"measurement": "FC Tmem26 (1434583_PM_at)", "result": "−1.66"}]}
